In PubChem BioAssay AID2060490 (Molecular Pharmacology Branch, DTP, NCI, 2025):

Tested on: 885512-296-R-J2-PDC complex spheroid viability
Assay: Anticancer human tumor 885512-296-R-J2-PDC patient-derived breast carcinoma cell line growth inhibition [GQUAD]
Details: for IC50: curve of first compound; for viability, T/C: stronger effect = lower value
Method in brief: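 Viability of tumor cells grown as complex spheroids with endothelial and stromal cells, exposed to drug combinations. Top concentration at or near clinical Cmax (else 10 microM), diluted in half-log increments.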

[1] = second compound 0.0316 µM, first compound 0.0316 µM
[2] = second compound 0.0316 µM, first compound 0.1 µM
[3] = second compound 0.0316 µM, first compound 0.316 µM
[4] = second compound 0.0316 µM, first compound 1 µM
[5] = second compound 0.0316 µM, first compound 3.16 µM
[6] = second compound 0.0316 µM, first compound 10 µM
[7] = second compound 0.1 µM, first compound 0.0316 µM
[8] = second compound 0.1 µM, first compound 0.1 µM
[9] = second compound 0.1 µM, first compound 0.316 µM
[10] = second compound 0.1 µM, first compound 1 µM
[11] = second compound 0.1 µM, first compound 3.16 µM
[12] = second compound 0.1 µM, first compound 10 µM
[13] = second compound 0.316 µM, first compound 0.0316 µM
[14] = second compound 0.316 µM, first compound 0.1 µM
[15] = second compound 0.316 µM, first compound 0.316 µM
[16] = second compound 0.316 µM, first compound 1 µM
[17] = second compound 0.316 µM, first compound 3.16 µM
[18] = second compound 0.316 µM, first compound 10 µM
[19] = second compound 1 µM, first compound 0.0316 µM
[20] = second compound 1 µM, first compound 0.1 µM
[21] = second compound 1 µM, first compound 0.316 µM
[22] = second compound 1 µM, first compound 1 µM
[23] = second compound 1 µM, first compound 3.16 µM
[24] = second compound 1 µM, first compound 10 µM
[25] = second compound 3.16 µM, first compound 0.0316 µM
[26] = second compound 3.16 µM, first compound 0.1 µM
[27] = second compound 3.16 µM, first compound 0.316 µM
[28] = second compound 3.16 µM, first compound 1 µM
[29] = second compound 3.16 µM, first compound 3.16 µM
[30] = second compound 3.16 µM, first compound 10 µM
[31] = second compound 10 µM, first compound 0.0316 µM
[32] = second compound 10 µM, first compound 0.1 µM
[33] = second compound 10 µM, first compound 0.316 µM
[34] = second compound 10 µM, first compound 1 µM
[35] = second compound 10 µM, first compound 3.16 µM
[36] = second compound 10 µM, first compound 10 µM
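Note: spheroids exposed to the compounds for one week.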
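Throughout, for viability, T/C: percent of tumor spheroid viability relative to DMSO vehicle control wells.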

What does the source list for C=CCn1c(=O)c2cnc(Nc3ccc(N4CCN(C)CC4)cc3)nc2n1-c1cccc(C(C)(C)O)n1 + Cc1cnc(CNC(=O)c2c(=O)c3ccc(N4CCCN(C)CC4)nc3n3c2sc2ccccc23)cn1?
IC50 (second compound 0.0316 µM): 198 nM; IC50 (second compound 0.1 µM): 53.1 nM; IC50 (second compound 0.316 µM): < 31.6 nM; IC50 (second compound 1 µM): < 31.6 nM; IC50 (second compound 3.16 µM): < 31.6 nM; IC50 (second compound 10 µM): < 31.6 nM; viability, T/C [1]: 91.2%; viability, T/C [2]: 80.3%; viability, T/C [3]: 29.2%; viability, T/C [4]: 7.28%; viability, T/C [5]: 2.83%; viability, T/C [6]: 2.53%; viability, T/C [7]: 58.3%; viability, T/C [8]: 39.6%; viability, T/C [9]: 19.6%; viability, T/C [10]: 6.62%; viability, T/C [11]: 2.73%; viability, T/C [12]: 3.18%; viability, T/C [13]: 21.2%; viability, T/C [14]: 16.4%; viability, T/C [15]: 12%; viability, T/C [16]: 7.07%; viability, T/C [17]: 3%; viability, T/C [18]: 3.66%; viability, T/C [19]: 22.6%; viability, T/C [20]: 16.2%; viability, T/C [21]: 10.8%; viability, T/C [22]: 4.65%; viability, T/C [23]: 2.76%; viability, T/C [24]: 2.44%; viability, T/C [25]: 21.4%; viability, T/C [26]: 12.4%; viability, T/C [27]: 6.15%; viability, T/C [28]: 0.28%; viability, T/C [29]: 0.16%; viability, T/C [30]: 0.17%; viability, T/C [31]: 0.12%; viability, T/C [32]: 0.16%; viability, T/C [33]: 0.16%; viability, T/C [34]: 0.15%; viability, T/C [35]: 0.81%; viability, T/C [36]: 0.81%

CCc1c2c(nc3ccc(O)cc13)-c1cc3c(c(=O)n1C2)COC(=O)[C@]3(O)CC + CN(C)c1ccc(Nc2c3ccc(NC(=O)CCN4CCCC4)cc3nc3cc(NC(=O)CCN4CCCC4)ccc23)cc1 was tested. Which IC50 (second compound 0.0316 µM) did it give?
The IC50 was less than 0.999 nM.

And the IC50 (second compound 0.1 µM)?
The IC50 was less than 0.999 nM.

And the IC50 (second compound 0.316 µM)?
The IC50 was less than 0.999 nM.

And the IC50 (second compound 1 µM)?
Its IC50 is less than 0.999 nM.

What about the IC50 (second compound 3.16 µM) of the same molecule?
The IC50 was less than 0.999 nM.

What about the IC50 (second compound 10 µM) of the same molecule?
The IC50 was less than 0.999 nM.

What about the viability, T/C (second compound 0.0316 µM, first compound 0.000999 µM) of the same molecule?
Its viability, T/C is 18.3%.

What about the viability, T/C (second compound 0.0316 µM, first compound 0.00316 µM) of the same molecule?
Its viability, T/C is 6.69%.

And the viability, T/C (second compound 0.0316 µM, first compound 0.00999 µM)?
The viability, T/C was 3.15%.

What about the viability, T/C [1] of the same molecule?
The viability, T/C was 1.94%.

What about the viability, T/C (second compound 0.0316 µM, first compound 0.0999 µM) of the same molecule?
The viability, T/C was 1.66%.

What about the viability, T/C [3] of the same molecule?
The viability, T/C was 1.39%.

And the viability, T/C (second compound 0.1 µM, first compound 0.000999 µM)?
Its viability, T/C is 15.7%.

What about the viability, T/C (second compound 0.1 µM, first compound 0.00316 µM) of the same molecule?
The viability, T/C was 7.02%.

What about the viability, T/C (second compound 0.1 µM, first compound 0.00999 µM) of the same molecule?
Its viability, T/C is 3.83%.

And the viability, T/C [7]?
The viability, T/C was 2.59%.

What about the viability, T/C (second compound 0.1 µM, first compound 0.0999 µM) of the same molecule?
The viability, T/C was 1.42%.

And the viability, T/C [9]?
The viability, T/C was 1.57%.

What about the viability, T/C (second compound 0.316 µM, first compound 0.000999 µM) of the same molecule?
The viability, T/C was 13.1%.

And the viability, T/C (second compound 0.316 µM, first compound 0.00316 µM)?
Its viability, T/C is 7.17%.

And the viability, T/C (second compound 0.316 µM, first compound 0.00999 µM)?
Its viability, T/C is 3.49%.

And the viability, T/C [13]?
The viability, T/C was 2.63%.

And the viability, T/C (second compound 0.316 µM, first compound 0.0999 µM)?
Its viability, T/C is 1.58%.

What about the viability, T/C [15] of the same molecule?
Its viability, T/C is 1.1%.

And the viability, T/C (second compound 1 µM, first compound 0.000999 µM)?
The viability, T/C was 19.3%.

And the viability, T/C (second compound 1 µM, first compound 0.00316 µM)?
The viability, T/C was 6.88%.

What about the viability, T/C (second compound 1 µM, first compound 0.00999 µM) of the same molecule?
Its viability, T/C is 3.62%.

And the viability, T/C [19]?
Its viability, T/C is 2.24%.

What about the viability, T/C (second compound 1 µM, first compound 0.0999 µM) of the same molecule?
Its viability, T/C is 1.82%.

And the viability, T/C [21]?
Its viability, T/C is 1.23%.

And the viability, T/C (second compound 3.16 µM, first compound 0.000999 µM)?
Its viability, T/C is 18.7%.

And the viability, T/C (second compound 3.16 µM, first compound 0.00316 µM)?
Its viability, T/C is 11.3%.

What about the viability, T/C (second compound 3.16 µM, first compound 0.00999 µM) of the same molecule?
Its viability, T/C is 4.83%.

What about the viability, T/C [25] of the same molecule?
Its viability, T/C is 2.33%.

What about the viability, T/C (second compound 3.16 µM, first compound 0.0999 µM) of the same molecule?
The viability, T/C was 1.61%.

What about the viability, T/C [27] of the same molecule?
Its viability, T/C is 1.26%.

And the viability, T/C (second compound 10 µM, first compound 0.000999 µM)?
Its viability, T/C is 12.8%.

And the viability, T/C (second compound 10 µM, first compound 0.00316 µM)?
Its viability, T/C is 10.4%.

And the viability, T/C (second compound 10 µM, first compound 0.00999 µM)?
The viability, T/C was 6.78%.

What about the viability, T/C [31] of the same molecule?
Its viability, T/C is 3.28%.

And the viability, T/C (second compound 10 µM, first compound 0.0999 µM)?
Its viability, T/C is 1.43%.

What about the viability, T/C [33] of the same molecule?
The viability, T/C was 0.56%.

What does the source list for CCCS(=O)(=O)Nc1ccc(F)c(C(=O)c2c[nH]c3ncc(-c4ccc(Cl)cc4)cc23)c1F + Cc1[nH]c2ccc(F)cc2c1-c1nc2c3cccnc3c3ncccc3c2[nH]1?
IC50 (second compound 0.0316 µM): 393 nM; IC50 (second compound 0.1 µM): 406 nM; IC50 (second compound 0.316 µM): 183 nM; IC50 (second compound 1 µM): 49.3 nM; IC50 (second compound 3.16 µM): < 31.6 nM; IC50 (second compound 10 µM): < 31.6 nM; viability, T/C [1]: 112%; viability, T/C [2]: 98.4%; viability, T/C [3]: 60.7%; viability, T/C [4]: 8.66%; viability, T/C [5]: 3.89%; viability, T/C [6]: 2.96%; viability, T/C [7]: 121%; viability, T/C [8]: 101%; viability, T/C [9]: 64%; viability, T/C [10]: 8.42%; viability, T/C [11]: 2.95%; viability, T/C [12]: 3.79%; viability, T/C [13]: 94.4%; viability, T/C [14]: 74%; viability, T/C [15]: 28.7%; viability, T/C [16]: 2.94%; viability, T/C [17]: 2.46%; viability, T/C [18]: 4.34%; viability, T/C [19]: 68.3%; viability, T/C [20]: 20.9%; viability, T/C [21]: 4.4%; viability, T/C [22]: 2.04%; viability, T/C [23]: 2.3%; viability, T/C [24]: 2.75%; viability, T/C [25]: 4.29%; viability, T/C [26]: 3.06%; viability, T/C [27]: 1.78%; viability, T/C [28]: 2%; viability, T/C [29]: 2.26%; viability, T/C [30]: 2.26%; viability, T/C [31]: 1.32%; viability, T/C [32]: 1.38%; viability, T/C [33]: 1.47%; viability, T/C [34]: 1.65%; viability, T/C [35]: 2.7%; viability, T/C [36]: 3.37%
